The values below come from doi:10.1101/2024.08.13.607785v1 (biorxiv, 2024).

What all share (set-up): species or system mixed lysate of K562, MV4-11, THP-1, NCI-H1155
For experiment [1], the target named is Tyrosine-protein kinase Fyn ; FYN ; P06241 (Homo sapiens, UniProt P06241). The following applies: DIA-MS residual binding; binder.
The target of experiment [2] is T1, Serine/threonine-protein kinase NLK ; NLK ; Q9UBE8 (Homo sapiens, UniProt Q9UBE8).
T1 sequence (Q9UBE8 1-527): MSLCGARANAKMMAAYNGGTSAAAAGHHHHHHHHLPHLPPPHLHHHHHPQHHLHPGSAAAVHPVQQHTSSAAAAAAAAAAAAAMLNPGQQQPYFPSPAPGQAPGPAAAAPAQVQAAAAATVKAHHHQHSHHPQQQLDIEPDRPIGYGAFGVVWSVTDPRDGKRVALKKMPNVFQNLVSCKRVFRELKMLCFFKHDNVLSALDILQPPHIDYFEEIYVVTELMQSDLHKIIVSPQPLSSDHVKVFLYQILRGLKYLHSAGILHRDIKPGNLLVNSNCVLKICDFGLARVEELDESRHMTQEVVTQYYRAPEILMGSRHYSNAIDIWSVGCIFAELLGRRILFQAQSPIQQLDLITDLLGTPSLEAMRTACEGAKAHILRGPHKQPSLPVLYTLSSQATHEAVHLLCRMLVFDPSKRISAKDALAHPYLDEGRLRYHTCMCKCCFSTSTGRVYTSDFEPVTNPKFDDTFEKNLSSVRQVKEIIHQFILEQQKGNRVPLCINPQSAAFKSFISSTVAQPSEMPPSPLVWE
The following applies: DIA-MS residual binding; binder.

In experiment [3] the target is Integrin-linked protein kinase ; ILK ; Q13418 (Homo sapiens, UniProt Q13418). Conditions: DIA-MS residual binding; binder.
Experiment [4] addresses Serine/threonine-protein kinase SIK2 ; SIK2 ; Q9H0K1 (Homo sapiens, UniProt Q9H0K1). The following applies: DIA-MS residual binding; binder.
In experiment [5] the target is Mitogen-activated protein kinase kinase kinase kinase 5 ; MAP4K5 ; Q9Y4K4 (Homo sapiens, UniProt Q9Y4K4). Conditions: DIA-MS residual binding; binder.
Experiment [6] concerns the target T2, Dual specificity mitogen-activated protein kinase kinase 3 ; MAP2K3 ; P46734 (Homo sapiens, UniProt P46734).
T2 sequence (P46734 1-347): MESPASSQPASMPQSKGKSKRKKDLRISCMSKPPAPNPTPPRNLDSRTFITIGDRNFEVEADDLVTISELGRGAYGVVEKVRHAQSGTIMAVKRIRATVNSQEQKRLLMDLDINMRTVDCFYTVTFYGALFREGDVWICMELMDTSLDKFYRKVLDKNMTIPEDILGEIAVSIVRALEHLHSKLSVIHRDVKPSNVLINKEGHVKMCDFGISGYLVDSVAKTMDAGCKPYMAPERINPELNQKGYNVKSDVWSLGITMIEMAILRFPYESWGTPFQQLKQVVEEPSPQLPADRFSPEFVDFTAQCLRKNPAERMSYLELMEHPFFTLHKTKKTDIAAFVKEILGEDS
The following applies: DIA-MS residual binding; binder.

Experiment [7] concerns the target Mitogen-activated protein kinase 14 ; MAPK14-2 ; Q16539-2 (Homo sapiens, UniProt Q16539). The following applies: DIA-MS residual binding; binder.
The target in experiment [8] is Tyrosine-protein kinase HCK ; HCK ; P08631 (Homo sapiens, UniProt P08631). The following applies: DIA-MS residual binding; binder.
Experiment [9] concerns the target T3, Tyrosine-protein kinase Tec ; TEC ; P42680 (Homo sapiens, UniProt P42680).
T3 sequence (P42680 1-631): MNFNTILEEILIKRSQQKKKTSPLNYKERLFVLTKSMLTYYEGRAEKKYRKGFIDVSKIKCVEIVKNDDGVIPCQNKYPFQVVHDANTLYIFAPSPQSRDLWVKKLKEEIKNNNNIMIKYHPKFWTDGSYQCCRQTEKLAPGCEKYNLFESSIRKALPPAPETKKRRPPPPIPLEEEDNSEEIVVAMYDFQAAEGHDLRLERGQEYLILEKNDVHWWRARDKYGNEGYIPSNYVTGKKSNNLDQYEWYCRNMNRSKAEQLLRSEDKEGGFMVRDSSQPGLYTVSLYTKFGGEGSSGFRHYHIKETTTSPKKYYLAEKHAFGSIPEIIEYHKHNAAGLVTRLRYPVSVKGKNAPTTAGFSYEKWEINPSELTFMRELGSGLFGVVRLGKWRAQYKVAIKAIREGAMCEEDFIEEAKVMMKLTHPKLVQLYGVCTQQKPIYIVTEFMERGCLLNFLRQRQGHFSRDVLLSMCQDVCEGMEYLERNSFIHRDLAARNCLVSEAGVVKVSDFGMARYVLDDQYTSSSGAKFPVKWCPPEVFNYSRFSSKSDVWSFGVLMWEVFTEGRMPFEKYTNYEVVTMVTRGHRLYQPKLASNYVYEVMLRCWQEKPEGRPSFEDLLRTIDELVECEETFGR
Conditions: binder.

Experiment [10] addresses LIM domain kinase 1 ; LIMK1 ; P53667 (Homo sapiens, UniProt P53667). The following applies: DIA-MS residual binding; binder.
The target in experiment [11] is Proto-oncogene tyrosine-protein kinase receptor Ret ; RET ; P07949 (Homo sapiens, UniProt P07949). Conditions: binder.
Chain of Proto-oncogene tyrosine-protein kinase receptor Ret ; RET ; P07949 (P07949 whole entry): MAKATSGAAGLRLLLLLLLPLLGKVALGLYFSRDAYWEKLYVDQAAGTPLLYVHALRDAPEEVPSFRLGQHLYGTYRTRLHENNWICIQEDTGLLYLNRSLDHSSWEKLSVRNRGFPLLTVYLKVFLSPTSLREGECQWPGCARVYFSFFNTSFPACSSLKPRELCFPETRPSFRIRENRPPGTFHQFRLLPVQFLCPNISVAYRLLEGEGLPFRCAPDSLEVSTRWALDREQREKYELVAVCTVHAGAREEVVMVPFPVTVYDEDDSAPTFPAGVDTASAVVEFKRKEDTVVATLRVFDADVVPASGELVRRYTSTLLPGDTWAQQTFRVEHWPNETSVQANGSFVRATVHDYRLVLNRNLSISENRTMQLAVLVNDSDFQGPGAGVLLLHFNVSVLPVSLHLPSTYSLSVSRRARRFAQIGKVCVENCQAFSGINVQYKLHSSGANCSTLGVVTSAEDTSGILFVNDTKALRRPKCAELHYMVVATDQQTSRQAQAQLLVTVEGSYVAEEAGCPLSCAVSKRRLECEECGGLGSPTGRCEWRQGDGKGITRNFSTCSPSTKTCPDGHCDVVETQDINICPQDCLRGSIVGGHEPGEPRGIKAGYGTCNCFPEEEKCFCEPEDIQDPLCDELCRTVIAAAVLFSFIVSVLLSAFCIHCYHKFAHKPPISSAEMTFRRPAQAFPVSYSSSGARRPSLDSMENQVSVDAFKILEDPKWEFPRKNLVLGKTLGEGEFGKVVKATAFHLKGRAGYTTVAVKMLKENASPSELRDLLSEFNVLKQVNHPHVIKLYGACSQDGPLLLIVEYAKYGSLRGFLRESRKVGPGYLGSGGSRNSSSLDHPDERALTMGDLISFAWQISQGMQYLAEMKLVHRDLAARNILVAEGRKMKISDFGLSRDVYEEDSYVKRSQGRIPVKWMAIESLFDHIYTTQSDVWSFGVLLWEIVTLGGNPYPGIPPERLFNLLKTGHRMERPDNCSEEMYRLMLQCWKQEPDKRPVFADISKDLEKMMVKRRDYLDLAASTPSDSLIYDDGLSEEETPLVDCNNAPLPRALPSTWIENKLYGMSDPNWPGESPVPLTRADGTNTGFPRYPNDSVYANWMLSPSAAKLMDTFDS

Chain of Tyrosine-protein kinase HCK ; HCK ; P08631 (P08631 whole entry): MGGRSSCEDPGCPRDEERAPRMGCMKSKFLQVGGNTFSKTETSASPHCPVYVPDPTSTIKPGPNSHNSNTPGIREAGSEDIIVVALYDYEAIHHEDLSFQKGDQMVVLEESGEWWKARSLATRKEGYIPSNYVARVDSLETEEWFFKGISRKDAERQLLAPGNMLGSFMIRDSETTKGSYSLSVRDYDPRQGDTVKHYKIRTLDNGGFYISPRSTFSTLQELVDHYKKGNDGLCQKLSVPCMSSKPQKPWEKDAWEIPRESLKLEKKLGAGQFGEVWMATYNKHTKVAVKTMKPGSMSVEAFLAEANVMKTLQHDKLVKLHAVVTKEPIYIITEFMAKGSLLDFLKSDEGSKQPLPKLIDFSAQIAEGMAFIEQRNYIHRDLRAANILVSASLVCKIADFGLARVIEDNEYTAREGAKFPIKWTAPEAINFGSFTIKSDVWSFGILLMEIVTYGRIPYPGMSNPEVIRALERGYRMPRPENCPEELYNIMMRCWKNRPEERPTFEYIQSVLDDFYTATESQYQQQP
Chain of Mitogen-activated protein kinase kinase kinase kinase 5 ; MAP4K5 ; Q9Y4K4 (Q9Y4K4 whole entry): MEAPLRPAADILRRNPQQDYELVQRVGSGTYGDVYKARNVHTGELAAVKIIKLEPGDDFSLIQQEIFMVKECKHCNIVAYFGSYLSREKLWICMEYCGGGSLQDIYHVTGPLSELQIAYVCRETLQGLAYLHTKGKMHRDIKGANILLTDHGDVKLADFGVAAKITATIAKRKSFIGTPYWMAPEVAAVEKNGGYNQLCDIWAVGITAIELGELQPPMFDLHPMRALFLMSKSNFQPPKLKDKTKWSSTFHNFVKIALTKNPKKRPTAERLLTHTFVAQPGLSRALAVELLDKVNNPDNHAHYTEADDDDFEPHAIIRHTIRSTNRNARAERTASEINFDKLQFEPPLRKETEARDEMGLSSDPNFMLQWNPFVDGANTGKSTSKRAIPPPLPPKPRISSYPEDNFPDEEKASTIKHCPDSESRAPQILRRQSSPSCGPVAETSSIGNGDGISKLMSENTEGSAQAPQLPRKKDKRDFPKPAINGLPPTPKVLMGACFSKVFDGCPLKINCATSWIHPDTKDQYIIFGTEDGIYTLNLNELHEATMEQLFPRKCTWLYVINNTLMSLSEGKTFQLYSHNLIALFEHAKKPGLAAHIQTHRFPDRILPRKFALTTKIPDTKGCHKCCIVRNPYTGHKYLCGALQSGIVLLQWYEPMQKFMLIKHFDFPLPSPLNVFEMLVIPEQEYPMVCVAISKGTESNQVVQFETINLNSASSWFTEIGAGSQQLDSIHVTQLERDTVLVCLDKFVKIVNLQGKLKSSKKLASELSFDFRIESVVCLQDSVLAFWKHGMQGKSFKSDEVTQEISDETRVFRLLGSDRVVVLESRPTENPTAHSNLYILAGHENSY
Chain of Serine/threonine-protein kinase SIK2 ; SIK2 ; Q9H0K1 (Q9H0K1 whole entry, one chain of several): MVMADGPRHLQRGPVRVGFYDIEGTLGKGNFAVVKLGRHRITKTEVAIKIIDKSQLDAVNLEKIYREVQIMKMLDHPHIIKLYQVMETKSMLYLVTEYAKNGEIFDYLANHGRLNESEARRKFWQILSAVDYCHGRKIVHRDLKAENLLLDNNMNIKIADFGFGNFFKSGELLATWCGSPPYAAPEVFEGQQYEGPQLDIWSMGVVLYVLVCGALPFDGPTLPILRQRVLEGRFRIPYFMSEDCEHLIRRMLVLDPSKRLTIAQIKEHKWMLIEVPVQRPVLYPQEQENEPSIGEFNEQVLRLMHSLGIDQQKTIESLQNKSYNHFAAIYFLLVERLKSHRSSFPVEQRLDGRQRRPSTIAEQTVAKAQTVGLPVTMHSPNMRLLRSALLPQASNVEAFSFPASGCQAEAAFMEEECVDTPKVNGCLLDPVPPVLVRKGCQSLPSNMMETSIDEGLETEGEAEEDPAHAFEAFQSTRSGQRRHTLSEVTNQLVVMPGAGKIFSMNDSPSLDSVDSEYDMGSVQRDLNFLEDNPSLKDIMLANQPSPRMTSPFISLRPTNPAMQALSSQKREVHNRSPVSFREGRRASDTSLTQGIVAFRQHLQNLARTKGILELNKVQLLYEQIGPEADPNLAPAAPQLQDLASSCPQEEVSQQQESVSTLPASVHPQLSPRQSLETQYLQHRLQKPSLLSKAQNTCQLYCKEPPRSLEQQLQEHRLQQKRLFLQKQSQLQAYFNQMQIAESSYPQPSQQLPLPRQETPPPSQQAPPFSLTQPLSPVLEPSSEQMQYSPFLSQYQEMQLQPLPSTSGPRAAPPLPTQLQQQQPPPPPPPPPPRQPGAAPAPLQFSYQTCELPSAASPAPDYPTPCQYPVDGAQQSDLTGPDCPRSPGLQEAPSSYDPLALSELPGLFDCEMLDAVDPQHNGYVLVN
Chain of Tyrosine-protein kinase Fyn ; FYN ; P06241 (P06241 whole entry): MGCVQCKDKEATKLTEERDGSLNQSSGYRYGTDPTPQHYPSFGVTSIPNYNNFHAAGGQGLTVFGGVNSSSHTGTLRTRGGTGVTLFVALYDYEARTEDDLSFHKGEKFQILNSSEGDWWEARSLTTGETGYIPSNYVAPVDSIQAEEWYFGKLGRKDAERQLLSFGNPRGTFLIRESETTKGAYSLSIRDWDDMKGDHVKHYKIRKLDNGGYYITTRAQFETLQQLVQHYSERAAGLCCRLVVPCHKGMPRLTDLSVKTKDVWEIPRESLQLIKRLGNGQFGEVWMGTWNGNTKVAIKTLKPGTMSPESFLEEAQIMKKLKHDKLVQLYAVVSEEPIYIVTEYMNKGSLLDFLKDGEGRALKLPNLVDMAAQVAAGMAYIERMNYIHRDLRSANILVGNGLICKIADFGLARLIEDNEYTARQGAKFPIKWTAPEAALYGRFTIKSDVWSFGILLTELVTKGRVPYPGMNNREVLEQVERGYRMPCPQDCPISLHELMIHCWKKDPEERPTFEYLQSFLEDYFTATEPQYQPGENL
Chain of Mitogen-activated protein kinase 14 ; MAPK14-2 ; Q16539-2 (Q16539 whole entry): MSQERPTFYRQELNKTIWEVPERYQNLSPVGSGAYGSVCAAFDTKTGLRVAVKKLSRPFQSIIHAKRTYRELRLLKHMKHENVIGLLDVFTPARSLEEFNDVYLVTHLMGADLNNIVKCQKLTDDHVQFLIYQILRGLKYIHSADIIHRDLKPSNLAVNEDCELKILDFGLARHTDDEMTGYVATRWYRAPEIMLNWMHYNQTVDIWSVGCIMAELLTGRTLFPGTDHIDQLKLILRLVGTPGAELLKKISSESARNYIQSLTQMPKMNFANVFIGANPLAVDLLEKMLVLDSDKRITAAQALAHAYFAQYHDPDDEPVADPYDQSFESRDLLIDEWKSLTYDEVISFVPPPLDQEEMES
Chain of LIM domain kinase 1 ; LIMK1 ; P53667 (P53667 whole entry, the tested form may be a part): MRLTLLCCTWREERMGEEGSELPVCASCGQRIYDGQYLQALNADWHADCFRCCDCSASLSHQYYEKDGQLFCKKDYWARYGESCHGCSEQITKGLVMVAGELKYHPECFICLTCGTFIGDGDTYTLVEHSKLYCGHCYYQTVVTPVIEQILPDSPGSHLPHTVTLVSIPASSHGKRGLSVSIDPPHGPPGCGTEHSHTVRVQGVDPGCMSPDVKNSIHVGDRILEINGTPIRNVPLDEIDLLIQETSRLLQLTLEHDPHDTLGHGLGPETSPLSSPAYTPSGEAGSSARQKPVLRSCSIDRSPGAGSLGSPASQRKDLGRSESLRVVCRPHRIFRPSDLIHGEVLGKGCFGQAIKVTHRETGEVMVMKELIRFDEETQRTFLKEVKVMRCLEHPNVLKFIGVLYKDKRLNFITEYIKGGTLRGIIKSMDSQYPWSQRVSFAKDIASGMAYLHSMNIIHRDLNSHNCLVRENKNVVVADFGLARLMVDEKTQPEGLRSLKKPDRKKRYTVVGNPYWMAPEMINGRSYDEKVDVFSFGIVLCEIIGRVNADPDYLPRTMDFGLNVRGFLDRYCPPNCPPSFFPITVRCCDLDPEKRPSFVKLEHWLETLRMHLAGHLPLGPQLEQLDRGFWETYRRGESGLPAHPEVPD

For the molecule `Cc1nc(Nc2ncc(C(=O)Nc3c(C)cccc3Cl)s2)cc(N2CCN(CCO)CC2)n1` [dasatinib], the “DIA-MS / % Intensity (30 µM/DMSO)” value in [1] was determined as 1.145%; in experiment [2], 47.56%; in experiment [3], 38.96%; in [4], 2.882%; in [5] it was 28.36%; in [6] it was 55.82%. In addition, the “DIA-MS / % Intensity (30 µM/DMSO)” value amounted to 35.75% in experiment [7]; 2.086% in experiment [8]; 7.109% in experiment [9]; 33.27% in experiment [10]; 41.37% in experiment [11].
